Source: patent publication US8618068B2, “Methods and low dose regimens for treating red blood cell disorders” (priority 2009, dated 2013)
Where “and” joins values, the source holds several entries; their conditions need not be identical. Equal entries are not always repeated. Where two headings read alike, the source gives them in different places.

Key:
[1] = Toxicokinetics, 26-week rat study; type: in vivo, Sprague Dawley rats; details: for AUC(0-inf): both sexes, Sprague Dawley, rat, plasma, po, mean of male and female rats
Procedure: DMB was administered to Sprague Dawley rats daily for 26 weeks at doses of 50, 100 and 500 mg/kg/day via oral gavage. Plasma levels of DMB were measured at 1 to 24 hours post-dose on Days 1 and 181. […] Systemic exposure increased with increasing dose level and was greater than dose-proportional on Day 0 and Day 181. The peak and extent of systemic exposure of Sprague Dawley rats to DMB were similar in males and females. Systemic exposure values on Day 181 ranged from 137% to 218% of the values at Day 0 indicating an accumulation of DMB during this time period.
Toxicokinetic information from the 26-week rat (Table 7) and 26-week dog toxicity studies (Table 8) are compared to systemic exposure (AUC) levels determined in a clinical study.

[2] = 28-Day repeat dose toxicity study in rats; type: in vivo, Sprague Dawley rats
Description: Completed toxicology studies conducted with DMB include a single-dose toxicity study in Sprague-Dawley rats, escalating dose toxicity study in Beagle dogs, a repeat dose study of 14-Day duration in Sprague-Dawley rats and repeat-dose toxicity studies of 28-Day duration in Sprague-Dawley rats and Beagle dogs, and 26-Week studies in Sprague-Dawley rats and Beagle dogs. […] Reproductive toxicity studies include two dose-range finding studies, one in Sprague-Dawley rats, the other in New Zealand white rabbits. DMB was administered once a day (QD) orally via gavage; doses are expressed as the sodium salt. In addition, an array of genotoxicity studies were conducted with DMB.
There were no histologic correlates with these findings. […] These changes in organ weight were not associated with abnormal pathology and not considered adverse.
Kidney weight was not increased in the single surviving 2,000/1,500 mg/kg/day male. […] There were no test article-related histomorphologic alterations consistent with the increase in absolute or relative kidney weights at either dose level.
Several clinical pathology changes occurred in the 28-Day Sprague Dawley rat study. […] At ≧1,000 mg/kg/day, decreases in Hgb, Hct, MCV, and MCHC, were observed. Decreases in Hgb, Hct, and MCV were also seen in 500 mg/kg/day females. Activated partial thromboplastin time was decreased in males at ≧1,000 mg/kg/day and females at 2,000/1,500 mg/kg/day and prothrombin time was increased in males of both groups. […] These serum chemistry changes were associated with the decreases seen in body weights and food consumption in these groups.

F-cells = F-cells in Bfu-e erythroid progenitor cultures; type: cell-based
in vivo = assay: in vivo; design: species or system Sprague-Dawley rats; details: rat; for NOAEL at 14 days: Sprague-Dawley
Procedure: […] With respect to the FOB measurements, the effect of DMB appeared to be more pronounced in females than males. […] However, decreased motor activity, reduced rectal temperature, direct limbic effects such as a deficit in visual tactile placing accuracy, ataxia, dragging of the hindlimbs in the open field, and decreased grip strength and neuromotor-neuromuscular deficits were only documented in the female rats at 600 mg/kg. In the male rats, these effects were present only in the animals treated with 1,000 mg/kg.

[3] = Phase 1 repeat-dose clinical study, pharmacokinetics; type: in vivo, human; details: for AUC(0-t): read-out: AUC0-24
Procedure: DMB was evaluated in a phase 1, placebo-controlled, randomized, repeat dose clinical study that evaluated tolerability, safety, and pharmacokinetics in healthy volunteers. A total of 41 subjects (31 receiving active drug and 10 receiving placebo) completed 14 consecutive days of study medication at daily dose levels of 5, 10 or 15 mg/kg (10 subjects received placebo). Given the importance of iron in red blood cell production, and the requirement for iron supplementation for induction of HbF with other erythropoietic agents, subjects at all 3 dose levels received oral ferrous gluconate on the study medication days. DMB was administered with food to all but one group (5 mg/kg, cohort 1). Subjects were admitted and observed for 24 hours following initial dosing. Thereafter, the study drug was taken once per day at home, except for the last study day. The subjects were monitored weekly for 6 weeks. Thirty-seven subjects completed the study and 4 subjects dropped out due to conflicts. Safety and PK data are available on these subjects.
The treatment groups included: Cohort 1: 5 mg/kg fasting, 6 active, 2 placebo; Cohort 2: 5 mg/kg with food, 7 active, 2 placebo (3 drop outs); Cohort 3: 5 mg/kg with food and iron supplements, 6 active, 2 placebo (1 drop out); Cohort 4: 10 mg/kg with food and iron supplements, 6 active, 2 placebo; and Cohort 5: 15 mg/kg with food and iron supplements, 6 active, 2 placebo. Subjects in Cohorts 3, 4, and 5 received a single daily dose of ferrous gluconate (325 mg). The iron supplement was administered to evaluate study medication tolerability when taken with iron. No subjects discontinued due to AEs or safety concerns. Fewer subjects reported an event in the highest dose cohort following eating a meal ([…]) than were reported in the lower dose cohorts ([…], 5 and 10 mg/kg).
Pharmacokinetic (PK) analyses of individual subject plasma concentration-time data were conducted for Day 0 (first dose) and Day 13 (at steady-state) in the multi-dose study. […] Analysis of PK data has shown that plasma drug levels >20 ug/mL persist for greater than 10 hours at the 10 and 15 mg/kg dose levels.

SMILES: CCC(C)(C)C(=O)[O-].[Na+] [DMB, Sodium 2,2-dimethylbutyrate]
- time of peak plasma concentrations ([1]; Day 0): 1 h
- AUC(0-inf) ([1]; 50 mg/kg): 125 µg·h/mL
- AUC(0-inf) ([1]; 100 mg/kg): 278 µg·h/mL
- AUC(0-inf) ([1]; 500 mg/kg (NOAEL)): 3440 µg·h/mL
- rat AUC0-∞ relative to human AUC0-∞ ([1]; rat 50 mg/kg vs human 2 mg/kg): 3.2X
- rat AUC0-∞ relative to human AUC0-∞ ([1]; rat 50 mg/kg vs human 5 mg/kg): 0.4X
- rat AUC0-∞ relative to human AUC0-∞ ([1]; rat 50 mg/kg vs human 10 mg/kg): 0.2X
- rat AUC0-∞ relative to human AUC0-∞ ([1]; rat 50 mg/kg vs human 20 mg/kg): 0.1X
- rat AUC0-∞ relative to human AUC0-∞ ([1]; rat 100 mg/kg vs human 2 mg/kg): 7.3X
- rat AUC0-∞ relative to human AUC0-∞ ([1]; rat 100 mg/kg vs human 5 mg/kg): 0.9X
- rat AUC0-∞ relative to human AUC0-∞ ([1]; rat 100 mg/kg vs human 10 mg/kg): 0.5X
- rat AUC0-∞ relative to human AUC0-∞ ([1]; rat 100 mg/kg vs human 20 mg/kg): 0.2X
- rat AUC0-∞ relative to human AUC0-∞ ([1]; rat 500 mg/kg (NOAEL) vs human 2 mg/kg): 91X
- rat AUC0-∞ relative to human AUC0-∞ ([1]; rat 500 mg/kg (NOAEL) vs human 5 mg/kg): 10.7X
- rat AUC0-∞ relative to human AUC0-∞ ([1]; rat 500 mg/kg (NOAEL) vs human 10 mg/kg): 6.4X
- rat AUC0-∞ relative to human AUC0-∞ ([1]; rat 500 mg/kg (NOAEL) vs human 20 mg/kg): 2.9 X
- RBC, lymphocyte, and leukocyte counts ([2]; 2,000/1,500 mg/kg/day): decreased
- NOAEL at 28 days ([2]; female, Sprague Dawley, rat, in vivo): 200 mg/kg/day and 32 mg/kg
- aspartate aminotransferase (AST) ([2]; males 1,000 mg/kg/day): slight increases
- alanine aminotransferase (ALT) ([2]; males 1,000 mg/kg/day, females 2,000/1,500 mg/kg/day): slight increases
- mean absolute and relative kidney weights ([2]; males 500 and 1,000 mg/kg/day, females 1,000 mg/kg/day): statistically significant, test article-related increases
- mean absolute and relative liver weights ([2]; males and females at 1,000 mg/kg/day): statistically significant, test article-related increases
- prothrombin time ([2]; males of both groups): increased
- Activated partial thromboplastin time ([2]; males ≧1,000 mg/kg/day, females 2,000/1,500 mg/kg/day): decreased
- Hgb, Hct, MCV, and MCHC ([2]; ≧1,000 mg/kg/day): decreases
- F-cells increase above F-cell levels in control cultures (F-cells): 32-71%
- NOAEL at 14 days (in vivo; female): 200 mg/kg/day
- NOAEL at 14 days (in vivo; male): 600 mg/kg/day
- FOB effects after two-week drug free period (in vivo): no residual FOB effects
- time for which plasma drug levels >20 ug/mL persist ([3]; 10 and 15 mg/kg dose levels): greater than 10 hours
- time for which targeted plasma drug levels were maintained ([3]; 10 and 15 mg/kg dose levels): more than 10 hours
- AUC(0-t) ([3]; human, plasma, oral, 5 mg/kg, Day 0, fed, with iron): 226 µg·h/mL
- Cmax ([3]; human, plasma, oral, 5 mg/kg, Day 0, fed, with iron, read-out: mean plasma Cmax): 16300 ng/mL
- AUC(0-t) ([3]; human, plasma, oral, 5 mg/kg, Day 0, without iron): 241 µg·h/mL
- Cmax ([3]; human, plasma, oral, 5 mg/kg, Day 0, without iron, read-out: Average Cmax): 17700 ng/mL
- Cmax ([3]; human, plasma, oral, 5 mg/kg, Day 13, fed, with iron, read-out: Cmax): 24800 ng/mL
- AUC ([3]; human, plasma, oral, 5 mg/kg, Day 13, with iron): 360 µg·h/mL
- AUC ([3]; human, plasma, oral, 5 mg/kg, Day 13, without iron): 312 µg·h/mL
- Cmax ([3]; human, plasma, oral, 5 mg/kg, Day 13, without iron, read-out: Average Cmax): 22400 ng/mL
- AUC(0-t) ([3]; human, plasma, oral, 10 mg/kg, Day 0, fed): 441 µg·h/mL
- Cmax ([3]; human, plasma, oral, 10 mg/kg, Day 0, fed, read-out: mean plasma Cmax): 30600 ng/mL
- AUC ([3]; human, plasma, oral, 10 mg/kg, Day 13): 538 µg·h/mL
- Cmax ([3]; human, plasma, oral, 10 mg/kg, Day 13, read-out: Cmax): 35700 ng/mL
- AUC(0-t) ([3]; human, plasma, oral, 15 mg/kg, Day 0, fed): 697 µg·h/mL
- Cmax ([3]; human, plasma, oral, 15 mg/kg, Day 0, fed, read-out: mean plasma Cmax): 48300 ng/mL
- AUC ([3]; human, plasma, oral, 15 mg/kg, Day 13): 958 µg·h/mL
- Cmax ([3]; human, plasma, oral, 15 mg/kg, Day 13, read-out: Cmax): 67600 ng/mL
- Tmax ([3]; human, plasma, oral, all dose levels, both days, dosing with food): 2.5 to 4.4 h
- half-life ([3]; human, plasma, oral, doses of 10 and 15 mg/kg, read-out: mean T1/2 (converted)): 11 h
